# Results reported in ChEMBL document CHEMBL3352686, “Development of synthetic lethality anticancer therapeutics” (J Med Chem, 2014).
# Legend:
# [1] = biological target: Serine/threonine-protein kinase mTOR (Homo sapiens, UniProt P42345); experiment: Inhibition of mTOR (unknown origin)
# [2] = biological target: Serine-protein kinase ATM (Homo sapiens, UniProt Q13315); experiment: Inhibition of ATM (unknown origin)
# [3] = biological target: Serine/threonine-protein kinase ATR (Homo sapiens, UniProt Q13535); experiment: Inhibition of ATR (unknown origin)
# [4] = biological target: DNA-dependent protein kinase catalytic subunit (Homo sapiens, UniProt P78527); experiment: Inhibition of DNAPK (unknown origin)
# Sequence of DNA-dependent protein kinase catalytic subunit (P78527 whole entry): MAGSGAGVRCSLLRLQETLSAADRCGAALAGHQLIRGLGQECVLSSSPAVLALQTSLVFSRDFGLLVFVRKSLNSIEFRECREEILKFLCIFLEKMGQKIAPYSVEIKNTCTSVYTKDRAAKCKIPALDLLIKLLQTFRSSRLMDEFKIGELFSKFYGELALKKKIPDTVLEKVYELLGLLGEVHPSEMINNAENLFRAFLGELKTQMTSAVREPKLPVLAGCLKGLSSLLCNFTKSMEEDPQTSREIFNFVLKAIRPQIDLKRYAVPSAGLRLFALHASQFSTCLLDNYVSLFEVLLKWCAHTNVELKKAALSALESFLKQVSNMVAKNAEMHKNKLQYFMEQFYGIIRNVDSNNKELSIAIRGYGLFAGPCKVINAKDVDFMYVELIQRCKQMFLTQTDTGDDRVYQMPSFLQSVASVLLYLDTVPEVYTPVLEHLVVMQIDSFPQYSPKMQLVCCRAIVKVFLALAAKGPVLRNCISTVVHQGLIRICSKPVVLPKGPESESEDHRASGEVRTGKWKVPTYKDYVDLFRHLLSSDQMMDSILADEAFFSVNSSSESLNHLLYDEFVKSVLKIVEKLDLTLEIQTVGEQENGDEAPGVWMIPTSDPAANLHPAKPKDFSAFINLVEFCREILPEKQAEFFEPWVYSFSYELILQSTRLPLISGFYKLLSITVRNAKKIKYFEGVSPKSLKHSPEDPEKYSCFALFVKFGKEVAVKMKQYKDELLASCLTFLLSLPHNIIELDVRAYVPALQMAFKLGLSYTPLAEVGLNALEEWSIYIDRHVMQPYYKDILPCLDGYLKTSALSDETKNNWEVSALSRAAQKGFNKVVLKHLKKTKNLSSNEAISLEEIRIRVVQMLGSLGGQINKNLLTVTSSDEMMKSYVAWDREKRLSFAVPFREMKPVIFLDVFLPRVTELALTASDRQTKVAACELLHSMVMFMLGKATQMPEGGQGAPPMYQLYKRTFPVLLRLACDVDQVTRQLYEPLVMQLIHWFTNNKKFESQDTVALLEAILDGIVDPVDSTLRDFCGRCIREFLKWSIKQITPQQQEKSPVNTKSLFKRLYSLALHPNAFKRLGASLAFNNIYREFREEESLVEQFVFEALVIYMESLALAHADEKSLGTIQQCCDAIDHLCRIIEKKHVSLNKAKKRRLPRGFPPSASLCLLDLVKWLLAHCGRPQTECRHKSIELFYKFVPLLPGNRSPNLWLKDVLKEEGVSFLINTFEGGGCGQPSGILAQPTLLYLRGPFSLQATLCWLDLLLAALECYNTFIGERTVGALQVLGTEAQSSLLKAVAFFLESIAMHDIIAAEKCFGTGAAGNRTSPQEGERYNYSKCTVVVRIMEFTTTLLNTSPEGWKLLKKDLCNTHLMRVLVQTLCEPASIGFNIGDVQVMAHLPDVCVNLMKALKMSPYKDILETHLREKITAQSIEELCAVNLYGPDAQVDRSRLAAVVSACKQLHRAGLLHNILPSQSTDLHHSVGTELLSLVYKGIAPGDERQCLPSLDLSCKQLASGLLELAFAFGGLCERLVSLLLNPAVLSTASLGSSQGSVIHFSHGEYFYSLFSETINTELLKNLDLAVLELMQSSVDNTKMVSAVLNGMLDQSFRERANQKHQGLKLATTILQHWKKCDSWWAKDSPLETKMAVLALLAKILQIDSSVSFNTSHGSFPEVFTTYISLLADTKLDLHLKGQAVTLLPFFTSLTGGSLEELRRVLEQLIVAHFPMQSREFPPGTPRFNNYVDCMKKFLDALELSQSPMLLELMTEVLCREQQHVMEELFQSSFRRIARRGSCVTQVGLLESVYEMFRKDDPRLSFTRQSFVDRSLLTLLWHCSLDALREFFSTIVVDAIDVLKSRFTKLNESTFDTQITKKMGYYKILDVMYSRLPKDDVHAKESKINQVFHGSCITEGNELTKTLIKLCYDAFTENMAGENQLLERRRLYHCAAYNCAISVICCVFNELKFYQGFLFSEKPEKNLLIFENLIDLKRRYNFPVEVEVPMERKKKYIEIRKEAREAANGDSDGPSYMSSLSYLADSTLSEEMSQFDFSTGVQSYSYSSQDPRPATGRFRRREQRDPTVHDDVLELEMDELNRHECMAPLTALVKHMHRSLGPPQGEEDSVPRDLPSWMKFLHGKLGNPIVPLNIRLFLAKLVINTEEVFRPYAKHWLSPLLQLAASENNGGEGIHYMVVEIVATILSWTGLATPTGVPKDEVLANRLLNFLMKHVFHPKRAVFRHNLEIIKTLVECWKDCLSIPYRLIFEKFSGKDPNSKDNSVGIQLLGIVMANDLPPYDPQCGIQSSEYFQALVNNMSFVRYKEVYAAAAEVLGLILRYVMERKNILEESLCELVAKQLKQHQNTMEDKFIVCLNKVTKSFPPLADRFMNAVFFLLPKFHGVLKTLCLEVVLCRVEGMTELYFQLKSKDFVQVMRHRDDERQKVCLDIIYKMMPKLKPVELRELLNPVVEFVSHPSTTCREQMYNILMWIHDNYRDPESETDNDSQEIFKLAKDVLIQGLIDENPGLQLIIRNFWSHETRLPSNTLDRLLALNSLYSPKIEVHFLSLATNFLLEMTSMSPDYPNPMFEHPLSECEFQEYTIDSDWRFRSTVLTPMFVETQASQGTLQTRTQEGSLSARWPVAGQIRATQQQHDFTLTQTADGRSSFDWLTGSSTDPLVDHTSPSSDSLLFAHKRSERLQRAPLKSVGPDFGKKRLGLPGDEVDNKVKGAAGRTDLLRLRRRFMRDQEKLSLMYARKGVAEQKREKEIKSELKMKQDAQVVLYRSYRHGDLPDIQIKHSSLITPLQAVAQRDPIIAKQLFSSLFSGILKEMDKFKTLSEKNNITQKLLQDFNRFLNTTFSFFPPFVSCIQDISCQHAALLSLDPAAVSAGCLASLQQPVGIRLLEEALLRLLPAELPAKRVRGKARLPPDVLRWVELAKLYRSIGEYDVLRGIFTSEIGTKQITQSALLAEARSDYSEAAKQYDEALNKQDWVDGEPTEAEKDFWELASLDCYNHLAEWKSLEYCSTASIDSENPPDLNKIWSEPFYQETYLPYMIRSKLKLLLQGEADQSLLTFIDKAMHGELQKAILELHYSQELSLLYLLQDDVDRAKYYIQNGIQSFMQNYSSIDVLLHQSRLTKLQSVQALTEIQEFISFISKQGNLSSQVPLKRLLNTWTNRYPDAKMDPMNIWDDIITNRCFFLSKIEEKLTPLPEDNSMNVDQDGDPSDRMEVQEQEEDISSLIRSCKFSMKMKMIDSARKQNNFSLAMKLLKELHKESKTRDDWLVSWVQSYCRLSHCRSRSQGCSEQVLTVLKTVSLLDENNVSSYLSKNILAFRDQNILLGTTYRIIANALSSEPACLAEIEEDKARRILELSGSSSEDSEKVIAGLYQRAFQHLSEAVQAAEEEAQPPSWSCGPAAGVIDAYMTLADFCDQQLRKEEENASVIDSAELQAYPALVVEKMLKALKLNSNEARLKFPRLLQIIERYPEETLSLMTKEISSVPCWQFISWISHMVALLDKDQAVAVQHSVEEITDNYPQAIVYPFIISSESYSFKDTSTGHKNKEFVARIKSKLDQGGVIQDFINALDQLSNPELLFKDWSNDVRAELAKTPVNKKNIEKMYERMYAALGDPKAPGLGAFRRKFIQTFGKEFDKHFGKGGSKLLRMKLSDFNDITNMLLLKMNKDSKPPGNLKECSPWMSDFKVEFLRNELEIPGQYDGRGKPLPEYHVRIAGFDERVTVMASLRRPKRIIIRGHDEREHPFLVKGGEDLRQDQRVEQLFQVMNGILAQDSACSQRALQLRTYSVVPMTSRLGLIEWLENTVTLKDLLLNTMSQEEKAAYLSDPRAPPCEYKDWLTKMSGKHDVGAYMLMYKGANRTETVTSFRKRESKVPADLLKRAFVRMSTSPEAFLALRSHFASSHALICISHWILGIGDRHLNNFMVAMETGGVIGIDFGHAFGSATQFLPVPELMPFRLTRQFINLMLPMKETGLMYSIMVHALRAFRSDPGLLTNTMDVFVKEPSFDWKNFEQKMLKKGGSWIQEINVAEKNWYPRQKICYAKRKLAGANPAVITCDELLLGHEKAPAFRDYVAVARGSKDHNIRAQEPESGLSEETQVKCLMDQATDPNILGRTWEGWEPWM
# [5] = Inhibition of PI3K (unknown origin); design: species or system Homo sapiens
# Homo sapiens [6] = species on record: Homo sapiens; experiment: Toxicity in patient with refractory acute leukemia; format: organism-based; conditions: in vivo
# [7] = Terminal half life in BRCA mutation carrying cancer patient with sporadic cancer; conditions: human, in vivo
# [8] = Cmax in BRCA mutation carrying cancer patient with sporadic cancer; conditions: human, in vivo
# [9] = Terminal half life in advanced breast cancer patient with BRCA1/2 mutations at 400 mg dosed twice daily; format: ADME, organism-based; conditions: human, in vivo, read-out: beta t1/2 (converted)
# Homo sapiens [10] = experiment: In vivo inhibition of PARP activity in tumor tissue of advanced breast cancer patient with BRCA1/2 mutations at 400 mg dosed twice daily; format: functional
# Homo sapiens [11] = experiment: Toxicity in advanced breast cancer patient with BRCA1/2 mutations assessed as maximum tolerated dose for twice daily dosing; format: organism-based; conditions: in vivo
# Homo sapiens [12] = experiment: In vivo inhibition of PARP activity in peripheral blood mononuclear cells of advanced breast cancer patient with BRCA1/2 mutations at 400 mg dosed twice daily; format: functional
# [13] = Cmax in advanced breast cancer patient with BRCA1/2 mutations at 400 mg dosed twice daily; format: ADME, organism-based; design: dose 400 mg; conditions: human, in vivo
# Homo sapiens [14] = species on record: Homo sapiens; experiment: Toxicity in patient with solid tumor co-treated with 500 mg/m2 pemetrexed; format: organism-based; conditions: in vivo
# Homo sapiens [15] = experiment: In vivo inhibition of PARP activity in peripheral blood mononuclear cells of advanced solid tumor patient at 12 mg/m2 co-treated with rucaparib and temzolomide; format: functional
# Homo sapiens [16] = experiment: Toxicity in refractory solid tumor and lymphoma patient at 10 mg dosed twice daily on days 1 to 5 in 21-day cycles co-treated with 50 mg cyclophosphamide once daily administered on days 1 to 5; format: organism-based; conditions: in vivo
# Homo sapiens [17] = experiment: In vivo inhibition of PARP activity in tumor tissue of refractory solid tumor and lymphoma patient at 10 mg dosed twice daily on days 1 to 5 in 21-day cycles co-treated with 50 mg cyclophosphamide once daily administered on days 1 to 5; format: functional
# Homo sapiens [18] = experiment: In vivo inhibition of PARP activity in peripheral blood mononuclear cells of refractory solid tumor and lymphoma patient at 10 mg dosed twice daily on days 1 to 5 in 21-day cycles co-treated with 50 mg cyclophosphamide once daily administered on days 1 to 5; format: functional
# [19] = Half life in refractory solid tumor and lymphoma patient; conditions: human, in vivo
# Homo sapiens [20] = experiment: Toxicity in refractory solid tumor and lymphoma patient at 10 mg dosed twice daily on days 1 to 5 in 21-day cycles co-treated with 0.6 mg/m2/day, iv topotecan administered on days 1 to 5; format: organism-based; conditions: in vivo
smiles,measurement,setting,value
CC(C)(C#N)c1ccc(N2C(=O)OCc3cnc4ccc(-c5cnc6ccccc6c5)cc4c32)cc1,IC50,[1],0.6 nM
same,IC50,[2],> 36 nM
same,IC50,[3],14 nM
same,IC50,[4],> 36 nM
same,IC50,[5],> 36 nM
Cn1cc(C2C=NN3C(N)=C(Br)C([C@@H]4CCCNC4)=NC23)cn1 (stereo not given in full),MTD,Homo sapiens [6],56 mg/m2
NC(=O)c1cccc2cn(-c3ccc([C@@H]4CCCNC4)cc3)nc12 [NIRAPARIB],half-life,[7],36.4 h
same,Cmax,[8],2000 nM
O=C(c1cc(Cc2n[nH]c(=O)c3ccccc23)ccc1F)N1CCN(C(=O)C2CC2)CC1 [OLAPARIB],half-life,[9],7 h
same,inhibition (INH),Homo sapiens [10],70%
same,MTD,Homo sapiens [11],400 mg
same,inhibition (INH),Homo sapiens [12],50%
same,Cmax,[13],2600 ng/mL
Cc1cnc(NC(=O)Nc2cc(Br)c(C)cc2OC[C@@H]2CNCCO2)cn1 [RABUSERTIB],MTD,Homo sapiens [14],150 mg/m2
CNCc1ccc(-c2[nH]c3cc(F)cc4c3c2CCNC4=O)cc1 [RUCAPARIB],inhibition in vivo at 12 mg/m2,Homo sapiens [15],74%
C[C@]1(c2nc3c(C(N)=O)cccc3[nH]2)CCCN1 [VELIPARIB],MTD,Homo sapiens [16],60 mg
same,inhibition (INH),Homo sapiens [17],80%
same,inhibition (INH),Homo sapiens [18],50%
same,half-life,[19],5 h
same,MTD,Homo sapiens [20],60 mg
